Results as given in US20240158446A1, “CYCLIC COMPOUND HAVING SELECTIVE INHIBITORY ACTION ON KRAS OVER HRAS AND NRAS” (CHUGAI SEIYAKU KABUSHIKI KAISHA, priority 2021, published 2024).
Where a SMILES comes first, the peptide text is derived from it. Bridges are numbered along the chain shown (N, C = ends). [ ]: non-standard residue; d: D form. The star is where a group is joined. hPhe(3-Cl-4-CF3) = N[C@@H](CCc1ccc(C(F)(F)F)c(Cl)c1)C(=O)O; NPrPhe(4-CF3) = CCCN[C@@H](Cc1ccc(C(F)(F)F)cc1)C(=O)O; NMeNva(3-Et) = CCC(CC)[C@H](NC)C(=O)O; NMeD = CN[C@@H](CC(=O)O)C(=O)O; NMeNva = CCC[C@H](NC)C(=O)O; Morpholide = C1CN(*)CCO1; NMeA = CN[C@@H](C)C(=O)O; Aze = O=C(O)[C@@H]1CCN1; Ac4c = NC1(C(=O)O)CCC1; Sar = CNCC(=O)O

Key:
[1] = system: human lung cancer strain NCI-H441; experiment: cells; details: NCI-H441, 96 h, read-out: NCI-H441 IC50 (nM), NCI-H441 cell proliferation, 4 days, CellTiter-Glo;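 note: cell proliferation inhibition after four days measured by CellTiter-Glo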
[2] = molecular target: GDP-bound NRAS wild-type protein (Homo sapiens, UniProt P01111); experiment: Binding to NRAS by surface plasmon resonance (SPR), Single Cycle Kinetics; details: ratio of KD for GDP-bound NRAS wild-type protein to KD for KRAS, SPR
[3] = molecular target: GDP-bound KRAS wild-type protein (Homo sapiens, UniProt P01116); experiment: Binding to KRAS by surface plasmon resonance (SPR), Single Cycle Kinetics; details: SPR, Single Cycle Kinetics, GDP-bound KRAS wild-type protein; read-out: KRAS KD
[4] = molecular target: GDP-bound HRAS wild-type protein (Homo sapiens, UniProt P01112); experiment: Binding to HRAS by surface plasmon resonance (SPR), Single Cycle Kinetics; details: ratio of KD for GDP-bound HRAS wild-type protein to KD for KRAS, SPR
GDP-bound HRAS wild-type protein, sequence (P01112 whole entry): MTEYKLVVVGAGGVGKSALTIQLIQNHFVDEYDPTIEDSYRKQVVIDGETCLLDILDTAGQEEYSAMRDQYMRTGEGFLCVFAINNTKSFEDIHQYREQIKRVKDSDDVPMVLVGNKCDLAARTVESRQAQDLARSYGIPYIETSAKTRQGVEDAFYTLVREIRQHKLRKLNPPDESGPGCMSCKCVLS

GDP-bound KRAS wild-type protein, sequence (P01116 whole entry): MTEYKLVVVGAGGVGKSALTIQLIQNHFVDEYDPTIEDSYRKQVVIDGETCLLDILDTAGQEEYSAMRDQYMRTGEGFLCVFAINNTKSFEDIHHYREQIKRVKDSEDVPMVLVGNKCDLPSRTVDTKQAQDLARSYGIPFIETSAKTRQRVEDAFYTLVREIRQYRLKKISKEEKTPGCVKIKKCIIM
GDP-bound NRAS wild-type protein, sequence (P01111 whole entry): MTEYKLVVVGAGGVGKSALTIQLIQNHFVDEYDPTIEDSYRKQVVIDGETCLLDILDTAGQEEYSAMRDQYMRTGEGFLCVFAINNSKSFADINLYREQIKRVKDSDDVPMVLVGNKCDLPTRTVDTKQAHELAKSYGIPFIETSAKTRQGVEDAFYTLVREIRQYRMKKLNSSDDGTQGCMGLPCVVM

Row | SMILES | IC50 [1] [nM] | NRAS/KRAS (KD ratio) [2] | Kd [3] [nM] | HRAS/KRAS (KD ratio) [4]
1 | CCC[C@H]1C(=O)N[C@@H]([C@@H](C)CC)C(=O)N(C)CC(=O)N(C)[C@H]2C/C=C\CCN(C2=O)[C@@H](Cc2ccc(C)cc2)C(=O)N(C)CC(=O)N[C@@H](CCc2cc(F)c(C(F)(F)F)c(F)c2)C(=O)N2C[C@H](C)C[C@H]2C(=O)N(C)C2(CCC2)C(=O)N(C)[C@@H](C2CCCC2)C(=O)N(C)[C@H](C(=O)N(C)C)CC(=O)N1C [PP1799] | 7.6 | B (a compound having 3 or more and less than 10 is denoted as B) | 0.068 | B (a compound having 3 or more and less than 10 is denoted as B)
2 | CCO[C@@H]1C[C@H]2C(=O)NC3(CC(F)(F)C3)C(=O)N(C)[C@@H](C3CCCC3)C(=O)N(C)[C@H](C(=O)N(C)C)CC(=O)N(C)[C@@H](CC(C)C)C(=O)N[C@@H]([C@@H](C)CC)C(=O)N(C)CC(=O)N(C)[C@H]3C/C=C\CCN(C3=O)[C@@H](Cc3ccc(C(F)(F)F)cc3)C(=O)N(C)CC(=O)N[C@@H](CCc3cc(F)c(C(F)(F)F)c(F)c3)C(=O)N2C1 [PP1741] | 2.3 | A (a compound having 10 or more and less than 20 is denoted as A) | 0.039 | B (a compound having 3 or more and less than 10 is denoted as B)
3 | CCOC[C@H]1C(=O)N[C@@H]([C@@H](C)CC)C(=O)N(C)CC(=O)N(C)[C@H]2C/C=C\CCN(C2=O)[C@@H](Cc2ccc(C(F)(F)F)cc2)C(=O)N(C)CC(=O)N[C@@H](CCc2cc(F)c(C(F)(F)F)c(F)c2)C(=O)N2C[C@H](OCC)C[C@H]2C(=O)NC2(CC(C)(C)C2)C(=O)N(C)[C@@H](C2CCCC2)C(=O)N(C)[C@H](C(=O)N(C)CC)CC(=O)N1C [PP2032] | 8.1 | A (a compound having 10 or more and less than 20 is denoted as A) | 0.061 | B (a compound having 3 or more and less than 10 is denoted as B)
4 | CCO[C@@H]1C[C@H]2C(=O)NC3(CC(C)(C)C3)C(=O)N(C)[C@@H](C3CCCC3)C(=O)N(C)[C@H](C(=O)N(CC)CC)CC(=O)N(C)[C@@H](CC)C(=O)N[C@@H]([C@@H](C)CC)C(=O)N(C)CC(=O)N(C)[C@H]3C/C=C\CCN(C3=O)[C@@H](Cc3ccc(C)cc3)C(=O)N(C)CC(=O)N[C@@H](CCc3ccc(C(F)(F)F)c(OC)c3)C(=O)N2C1 [PP1881] | 16.7 | A (a compound having 10 or more and less than 20 is denoted as A) | 0.29 | A (a compound having 10 or more and less than 20 is denoted as A)
5 | CCCN(C)C(=O)[C@@H]1CC(=O)N(C)[C@@H](CC(F)F)C(=O)N[C@@H]([C@@H](C)CC)C(=O)N(C)CC(=O)N(C)[C@H]2C/C=C\CCN(C2=O)[C@@H](Cc2ccc(C(F)(F)F)cc2)C(=O)N(C)CC(=O)N[C@@H](CCc2cc(F)c(C(F)(F)F)c(F)c2)C(=O)N2C[C@H](F)C[C@H]2C(=O)NC2(CC(C)(C)C2)C(=O)N(C)[C@@H](C2CCCC2)C(=O)N1C [PP1687] | 2.7 | A (a compound having 10 or more and less than 20 is denoted as A) | 0.075 | A (a compound having 10 or more and less than 20 is denoted as A)
6 | CCO[C@@H]1C[C@H]2C(=O)NC3(CC(C)(C)C3)C(=O)N(C)[C@@H](C3CCCC3)C(=O)N(C)[C@H](C(=O)N(C)C)CC(=O)N(CC)[C@@H](CC(C)C)C(=O)N[C@@H]([C@@H](C)CC)C(=O)NCC(=O)N(C)[C@H]3C/C=C\CCN(C3=O)[C@@H](Cc3ccc(C(F)(F)F)cc3)C(=O)N(C)CC(=O)N[C@@H](CCc3cc(F)c(C(F)(F)F)c(F)c3)C(=O)N2C1 [PP1772] | 13.4 | B (a compound having 3 or more and less than 10 is denoted as B) | 0.23 | B (a compound having 3 or more and less than 10 is denoted as B)
7 | CCO[C@@H]1C[C@H]2C(=O)NC3(CCC3)C(=O)N(C)[C@@H](C3CCCC3)C(=O)N(C)[C@H](C(=O)N(C)CC)CC(=O)N(C)[C@@H](C3CC3)C(=O)N[C@@H]([C@@H](C)CC)C(=O)N(C)CC(=O)N(C)[C@H]3C/C=C\CCN(C3=O)[C@@H](Cc3ccc(C(F)(F)F)cc3)C(=O)N(C)CC(=O)N[C@@H](CCc3ccc(C(F)(F)F)c(OC)c3)C(=O)N2C1 [PP2021] | 4.9 | A (a compound having 10 or more and less than 20 is denoted as A) | 0.12 | B (a compound having 3 or more and less than 10 is denoted as B)
8 | CCO[C@@H]1C[C@H]2C(=O)NC3(CC(C)(C)C3)C(=O)N(C)[C@@H](C3CCCC3)C(=O)N(C)[C@H](C(=O)N(C)CC)CC(=O)N(C)[C@@H](COC)C(=O)N[C@@H]([C@@H](C)CC)C(=O)N(C)CC(=O)N(C)[C@H]3C/C=C\CCN(C3=O)[C@@H](Cc3ccc(C(F)(F)F)cc3)C(=O)N(C)CC(=O)N[C@@H](CCc3ccc(C(F)(F)F)c(OC)c3)C(=O)N2C1 [PP1679] | 3.1 | A (a compound having 10 or more and less than 20 is denoted as A) | 0.065 | A (a compound having 10 or more and less than 20 is denoted as A)
9 | CCO[C@@H]1C[C@H]2C(=O)NC3(CC(C)(C)C3)C(=O)N(C)[C@@H](C3CCCC3)C(=O)N(C)[C@H](C(=O)N(C)C)CC(=O)N(C)[C@@H](CC)C(=O)N[C@@H]([C@@H](C)CC)C(=O)N(C)CC(=O)N(C)[C@H]3C/C=C\CCN(C3=O)[C@@H](Cc3ccc(C)cc3)C(=O)N(C)CC(=O)N[C@@H](CCc3ccc(C(F)(F)F)c(Cl)c3)C(=O)N2C1 [PP1878] | 8.8 | A (a compound having 10 or more and less than 20 is denoted as A) | 0.063 | A (a compound having 10 or more and less than 20 is denoted as A)
10 | CCC[C@H]1C(=O)N[C@@H]([C@@H](C)CC)C(=O)N(C)[C@@H](C)C(=O)N2CC[C@H]2C(=O)N(CCC)[C@@H](Cc2ccc(C(F)(F)F)cc2)C(=O)N(C)CC(=O)N[C@@H](CCc2ccc(C(F)(F)F)c(Cl)c2)C(=O)N2CCC[C@H]2C(=O)NC2(CCC2)C(=O)N(C)[C@@H](C(CC)CC)C(=O)N(C)[C@H](C(=O)N2CCOCC2)CC(=O)N1C [PP1959] ([NMeNva]I[NMeA][Aze][NPrPhe(4-CF3)][Sar][hPhe(3-Cl-4-CF3)]P[Ac4c][NMeNva(3-Et)][NMeD]-Morpholide; lactam N-11) | 14.7 | C (A compound having a KD ratio of 0.1 or more and less than 3 is denoted as C) | 0.55 | B (a compound having 3 or more and less than 10 is denoted as B)
11 | CC[C@H](C)[C@@H]1NC(=O)[C@H](C(C)C)N(C)C(=O)C[C@@H](C(=O)N(C)CC)N(C)C(=O)[C@H](C2CCCC2)N(C)C(=O)C2(CC(C)(C)C2)NC(=O)[C@@H]2C[C@H](C)CN2C(=O)[C@H](CCc2cc(F)c(C(F)(F)F)c(F)c2)NC(=O)CN(C)C(=O)[C@H](Cc2ccc(C(F)(F)F)cc2)N2CC/C=C\C[C@@H](C2=O)N(C)C(=O)CN(C)C1=O [PP1976] | 92 | AA (a compound having 20 or more is denoted as AA) | 0.37 | A (a compound having 10 or more and less than 20 is denoted as A)
12 | CCCN(C)C(=O)[C@@H]1CC(=O)N(C)[C@@H](CC(F)F)C(=O)N[C@@H]([C@@H](C)CC)C(=O)N(C)CC(=O)N(C)[C@H]2C/C=C\CCN(C2=O)[C@@H](Cc2ccc(C(F)(F)F)cc2)C(=O)N(C)CC(=O)N[C@@H](CCc2ccc(C(F)(F)F)c(OC)c2)C(=O)N2C[C@H](OCC)C[C@H]2C(=O)NC2(CCC2)C(=O)N(C)[C@@H](C2CCCC2)C(=O)N1C [PP2013] | 7.7 | A (a compound having 10 or more and less than 20 is denoted as A) | 0.13 | B (a compound having 3 or more and less than 10 is denoted as B)
13 | CCO[C@@H]1C[C@H]2C(=O)NC3(CCC3)C(=O)N(C)[C@@H](C3CCCC3)C(=O)N(C)[C@H](C(=O)N(C)CC)CC(=O)N(C)[C@@H](C(C)C)C(=O)N[C@@H]([C@@H](C)CC)C(=O)N(C)CC(=O)N(C)[C@H]3C/C=C\CCN(C3=O)[C@@H](Cc3ccc(C(F)(F)F)cc3)C(=O)N(C)CC(=O)N[C@@H](CCc3cc(F)c(C(F)(F)F)c(F)c3)C(=O)N2C1 [PP1990] | 6.6 | A (a compound having 10 or more and less than 20 is denoted as A) | 0.14 | A (a compound having 10 or more and less than 20 is denoted as A)
14 | CCO[C@@H]1C[C@H]2C(=O)N(C)C3(CCC3)C(=O)N(C)[C@@H](C3CCCC3)C(=O)N(C)[C@H](C(=O)N(C)C)CC(=O)N(C)[C@@H](CC)C(=O)N[C@@H]([C@@H](C)CC)C(=O)N(C)CC(=O)N(C)[C@H]3C/C=C\CCN(C3=O)[C@@H](Cc3ccc(C)cc3)C(=O)N(C)CC(=O)N[C@@H](CCc3cc(F)c(C(F)(F)F)c(F)c3)C(=O)N2C1 [PP1781] | 2.1 | A (a compound having 10 or more and less than 20 is denoted as A) | 0.024 | B (a compound having 3 or more and less than 10 is denoted as B)
